From patent US11529347B2, “SHP2 phosphatase inhibitors and methods of use thereof” (Relay Therapeutics, Inc., priority 2016, dated 2022)

These compounds were tested against SHP2 (Homo sapiens (Human), UniProt Q06124) (assay: SHP2 Allosteric Inhibition Assay (DiFMUP prompt fluorescence)). Conditions: 0.25 nM SHP2 activated with 0.5 μM peptide IRS1_pY1172(dPEG8)pY1222; substrate DiFMUP 100 μM.
Assay type: biochemical
From the text: SHP2 is allosterically activated through binding of bis-tyrosyl-phosphorylated peptides to its Src Homology 2 (SH2) domains. The latter activation step leads to the release of the auto-inhibitory interface of SHP2, which in turn renders the SHP2 protein tyrosine phosphatase (PTP) active and available for substrate recognition and reaction catalysis. The catalytic activity of SHP2 was monitored using the surrogate substrate DiFMUP in a prompt fluorescence assay format.
The inhibitor dose response curves were analyzed using normalized IC50 regression curve fitting with control based normalization.

Chain of SHP2 (Q06124 whole entry): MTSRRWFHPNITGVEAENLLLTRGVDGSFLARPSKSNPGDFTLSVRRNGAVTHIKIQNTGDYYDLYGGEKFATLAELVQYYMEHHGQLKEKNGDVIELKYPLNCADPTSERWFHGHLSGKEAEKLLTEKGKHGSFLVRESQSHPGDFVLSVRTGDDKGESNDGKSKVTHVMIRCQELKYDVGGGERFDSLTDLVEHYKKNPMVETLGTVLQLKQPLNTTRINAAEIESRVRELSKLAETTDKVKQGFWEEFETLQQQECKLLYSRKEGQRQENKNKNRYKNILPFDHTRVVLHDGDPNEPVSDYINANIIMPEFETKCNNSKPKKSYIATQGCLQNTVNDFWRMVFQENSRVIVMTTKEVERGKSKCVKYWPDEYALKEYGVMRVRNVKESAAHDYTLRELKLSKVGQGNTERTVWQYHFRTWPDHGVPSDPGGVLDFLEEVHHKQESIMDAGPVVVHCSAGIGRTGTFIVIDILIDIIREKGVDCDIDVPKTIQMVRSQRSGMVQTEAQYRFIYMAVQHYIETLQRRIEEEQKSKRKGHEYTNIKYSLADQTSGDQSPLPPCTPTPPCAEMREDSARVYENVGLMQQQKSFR

`NCC1(O)CCN(c2cnc3c(-c4cccc(Cl)c4)n[nH]c3n2)CC1` [Compound 25] and `CC1(CN)CCN(c2cnc3c(-c4cccc(Cl)c4)n[nH]c3n2)CC1` [Compound 50] cannot be ordered by IC50: under 10 µM for the first, under 10 µM for the second.

`CC1(CN)CCN(c2cnc3c(-c4cccc(Cl)c4Br)n[nH]c3n2)CC1` [Compound 34] and `CC1(CN)CCN(c2cnc3c(-c4cccc(Cl)c4F)n[nH]c3n2)CC1` [Compound 48] cannot be ordered by IC50: under 10 µM for the first, under 10 µM for the second.

`NC1CCN(c2cnc3c(-c4ccccc4Cl)n[nH]c3n2)CC1` [Compound 38] and `CC(N)C1CCN(c2cnc3c(-c4ccccc4Cl)n[nH]c3n2)CC1` (stereo not shown) [Compound 47] cannot be ordered by IC50: under 10 µM for the first, under 10 µM for the second.

`CC1(CN)CCN(c2cnc3c(-c4ccccc4Cl)n[nH]c3n2)CC1` [Compound 43] and `CC1(CN)CCCN(c2cnc3c(-c4ccccc4Cl)n[nH]c3n2)CC1` (stereo not shown) [Compound 13] cannot be ordered by IC50: under 10 µM for the first, under 10 µM for the second.

`NC(CO)C1CCN(c2cnc3c(-c4ccccc4Cl)n[nH]c3n2)CC1` (stereo not shown) [Compound 30] and `NCC1CCCN(c2cnc3c(-c4ccccc4Cl)n[nH]c3n2)CC1` (stereo not shown) [Compound 40] cannot be ordered by IC50: under 10 µM for the first, under 10 µM for the second.

`NCC1(N)CCN(c2cnc3c(-c4ccccc4Cl)n[nH]c3n2)CC1` [Compound 46] and `NC1(CO)CCN(c2cnc3c(-c4ccccc4Cl)n[nH]c3n2)CC1` [Compound 56] cannot be ordered by IC50: under 10 µM for the first, under 10 µM for the second.

`N[C@@H]1[C@H]2CN(c3cnc4c(-c5cccc(Cl)c5)n[nH]c4n3)C[C@@H]12` [Compound F21] and `NCC1CCN(c2cnc3c(-c4cccc(Cl)c4)n[nH]c3n2)C1` (stereo not shown) [Compound 27] cannot be ordered by IC50: under 10 µM for the first, under 10 µM for the second.

`COc1cccc(-c2n[nH]c3nc(N4CCC(C)(CN)CC4)cnc23)c1Cl` [Compound 39] and `COc1ccccc1-c1n[nH]c2nc(N3CCC(C)(CN)CC3)cnc12` [Compound 54] cannot be ordered by IC50: under 10 µM for the first, under 10 µM for the second.

`CC1(CN)CCN(c2cnc3c(-c4ccccc4)n[nH]c3n2)CC1` [Compound 15] and `CC1(CN)CCN(c2cnc3c(-c4ccncc4)n[nH]c3n2)CC1` [Compound 19] cannot be ordered by IC50: under 10 µM for the first, under 10 µM for the second.

Compared with `Clc1ccccc1-c1n[nH]c2nc(N3CCC4(CCCN4)CC3)cnc12` [Compound 41], `O=C1NCC2(CCN(c3cnc4c(-c5ccccc5Cl)n[nH]c4n3)CC2)N1` [Compound 11] is higher in IC50: under 10 µM for the first, 10 to 100 µM for the second.

`COCC1(CN)CCN(c2cnc3c(-c4ccccc4Cl)n[nH]c3n2)CC1` [Compound 42] and `NCC1(CO)CCN(c2cnc3c(-c4ccccc4Cl)n[nH]c3n2)CC1` [Compound 51] cannot be ordered by IC50: under 10 µM for the first, under 10 µM for the second.

Compared with `Clc1ccccc1-c1n[nH]c2nc(N3CCC4(CCNC4)C3)cnc12` (stereo not shown) [Compound 55], `NC1CC12CCN(c1cnc3c(-c4ccccc4Cl)n[nH]c3n1)CC2` (stereo not shown) [Compound 18] is lower in IC50: 10 to 100 µM for the first, under 10 µM for the second.

`COC1(CN)CCN(c2cnc3c(-c4ccccc4Cl)n[nH]c3n2)CC1` [Compound 32] and `NCC1(O)CCN(c2cnc3c(-c4ccccc4Cl)n[nH]c3n2)CC1` [Compound 52] cannot be ordered by IC50: under 10 µM for the first, under 10 µM for the second.

`CC1(N)CCN(c2cnc3c(-c4ccc(Cl)cc4)n[nH]c3n2)CC1` [Compound 17] and `CC1(CN)CCN(c2cnc3c(-c4ccc(Cl)cc4)n[nH]c3n2)CC1` [Compound 29] cannot be ordered by IC50: under 10 µM for the first, under 10 µM for the second.

`N[C@H]1CCC12CCN(c1cnc3c(-c4ccccc4Cl)n[nH]c3n1)CC2` [Compound 26] and `NC1CCC12CCN(c1cnc3c(-c4ccccc4Cl)n[nH]c3n1)CC2` (stereo not shown) [Compound 28] cannot be ordered by IC50: under 10 µM for the first, under 10 µM for the second.

`CC1(N)CCN(c2cnc3c(-c4ccccc4Cl)n[nH]c3n2)CC1` [Compound 6] and `NCC1(F)CCN(c2cnc3c(-c4ccccc4Cl)n[nH]c3n2)CC1` [Compound 24] cannot be ordered by IC50: under 10 µM for the first, under 10 µM for the second.

First: NCC1(O)CCCN(c2cnc3c(-c4ccccc4Cl)n[nH]c3n2)CC1 (stereo not shown) [Compound 20]
Second: N[C@@H]1CC12CCN(c1cnc3c(-c4ccccc4Cl)n[nH]c3n1)CC2 [Compound 49]
The IC50 of the first is lower: under 10 µM for the first, 10 to 100 µM for the second.

First: CC1(CN)CCN(c2cnc3c(-c4cccc(Cl)c4Cl)n[nH]c3n2)CC1 [Compound 10]
Second: CC1(CN)CCN(c2cnc3c(-c4ncccc4Cl)n[nH]c3n2)CC1 [Compound 22]
The IC50 of the first is lower: under 10 µM for the first, 10 to 100 µM for the second. The first is the more potent here.

`N[C@H]1CCCC12CCN(c1cnc3c(-c4ccccc4Cl)n[nH]c3n1)CC2` [Compound 35] and `N[C@@H]1CCCC12CCN(c1cnc3c(-c4ccccc4Cl)n[nH]c3n1)CC2` [Compound 16] cannot be ordered by IC50: under 10 µM for the first, under 10 µM for the second.

First: Clc1ccccc1-c1n[nH]c2nc(N3C4CCCC3CC4)cnc12 [Compound 8]
Second: N[C@H]1CC12CCN(c1cnc3c(-c4ccccc4Cl)n[nH]c3n1)CC2 [Compound 9]
The IC50 of the first is higher: 10 to 100 µM for the first, under 10 µM for the second.

`O=C1NCC2(CCCN(c3cnc4c(-c5ccccc5Cl)n[nH]c4n3)CC2)O1` (stereo not shown) [Compound 53] and `N[C@@H]1CCC12CCN(c1cnc3c(-c4ccccc4Cl)n[nH]c3n1)CC2` [Compound 37] fall in the same range of IC50: 10 to 100 µM for the first, 10 to 100 µM for the second.

First: CC(C)(N)C1CCN(c2cnc3c(-c4ccccc4Cl)n[nH]c3n2)CC1 [Compound 14]
Second: N[C@H]1CCN(c2cnc3c(-c4ccccc4Cl)n[nH]c3n2)C[C@@H]1O [Compound 33]
The IC50 of the first is higher: 10 to 100 µM for the first, under 10 µM for the second. The second is the more potent here.

`NC(=O)C1(N)CCN(c2cnc3c(-c4cccc(Cl)c4)n[nH]c3n2)CC1` [Compound 12] and `CC1(N)CCN(c2cnc3c(-c4cccc(Cl)c4)n[nH]c3n2)CC1` [Compound 31] cannot be ordered by IC50: under 10 µM for the first, under 10 µM for the second.

First: Clc1ccccc1-c1n[nH]c2nc(N3CC4CNCC4C3)cnc12 (stereo not shown) [Compound 44]
Second: CNCC1(C)CCN(c2cnc3c(-c4ccccc4Cl)n[nH]c3n2)CC1 [Compound 36]
The IC50 of the first is lower: under 10 µM for the first, 10 to 100 µM for the second. The first is the more potent here.

`Clc1cccc(-c2n[nH]c3nc(N4CCCCC4)cnc23)c1Cl` [Compound 45] was tested, and the IC50 was over 100 µM.
